{"source": "patent US8349365B2", "about": "“Cellooligosaccharide-containing composition” (priority 2005, dated 2013)", "key": {"[1]": {"assay": "oil retention (rapeseed oil)", "type": "physicochemical", "conditions": "same manner as in Example 4", "from_the_text": "The oil retention of the cellooligosaccharide composition of the present invention is preferably 0.9 g/g. The term “oil retention” means the amount of oil absorbed per 1 g of powder measured by placing 2 g of a cellooligosaccharide composition on a glass plate, kneading powder with a spatula while adding rapeseed oil (Nissin Canola Oil, dropwise using a pipette, and using the point at which oil soaks out of the powder surface as the end point and is expressed by Oil retention (g/g)=amount of oil absorption (g)/amount of cellooligosaccharide composition (g). A greater value is preferable because separation or soaking out of oil, semisolid or liquid can be prevented when a food, a cosmetic, a drug, or a quasi-drug is produced with a prescription containing oil or a prescription containing a semisolid or a liquid at room temperature. The oil retention is more preferably in the range of 1.0 g/g and higher, particularly preferably in the range of 1.1 g/g and higher."}, "[2]": {"system": "rough skin, inner side of the forearm", "assay": "transepidermal water loss (TEWL) recovery test", "type": "in vivo, human", "from_the_text": "The barrier function in the present invention is expressed by the recovery-promoting rate of transepidermal water loss, and the recovery-promoting rate of transepidermal water loss of the agent for improving barrier function of the present invention is preferably 10% or higher. The recovery-promoting rate referred to herein is expressed by a decreasing rate of relative transepidermal water loss of the cellooligosaccharide-containing composition to a relative transepidermal water loss of purified water using a relative transepidermal water loss 2 hours after applications of the aqueous cellooligosaccharide solution and a relative transepidermal water loss obtained from purified water to the rough skin. This value is obtained by the following expression. Recovery-promoting rate(%)=([relative transepidermal water loss of water)−[relative transepidermal water loss of cellooligosaccharide-containing composition]/(relative transepidermal water loss of water)×100\nFurthermore, a relative value of the above-mentioned transepidermal water loss (relative transepidermal water loss) can be measured by transepidermal water loss (TEWL) in the rough skin. First, the inner side of the forearm (test site) is wiped with 70% ethanol and habituated in a room with a constant temperature and a humidity (room temperature 22° C., humidity 45%) for 15 minutes, and the test site is measured with a 2-channel moisture loss monitor (manufactured by Asahi Biomed, TW-AS type to obtain the initial TEWL value (TEWEL0). Then, after measurement of the initial TEWL, the test site is washed with water, the test site is coated with 2% by mass of sodium dodecylsulfate (SDS, by a closed patch and washed with water using a Finn chamber (manufactured by Epitest), and then TEWL (TSWL rough skin) is measured in the same manner as described above. Then purified water or the aqueous cellooligosaccharide solution of the present invention is applied to the same site, and TEWL at the site is measured 2 hours after application (TEWL2) by the above-described method. […]"}}}
{"smiles": "OC[C@H]1O[C@@H](O[C@H]2[C@H](O)[C@@H](O)[C@H](O)O[C@@H]2CO)[C@H](O)[C@@H](O)[C@@H]1O", "note": "[D-cellobiose]", "values": [{"measurement": "oil retention", "setting": "[1]", "value": 0.85}]}
{"smiles": "OC[C@H]1O[C@H](OC[C@H]2O[C@H](O[C@]3(CO)O[C@H](CO)[C@@H](O)[C@@H]3O)[C@H](O)[C@@H](O)[C@@H]2O)[C@H](O)[C@@H](O)[C@H]1O", "note": "[compound 9, raffinose]", "values": [{"measurement": "relative TEWL value after 2 hours", "setting": "[2]; SDS-treated forearm skin of 3 male and 2 female subjects, rough skin taken as 100, 2 hours after application", "value": 42.1, "unit": "%"}, {"measurement": "TEWL RECOVERY-PROMOTING RATE AFTER 2 HOURS", "setting": "[2]; relative to purified water, 2 hours after application", "value": "−7.1", "unit": "%"}]}
{"smiles": "OC[C@H]1O[C@H](OC[C@H]2O[C@H](O[C@]3(CO)O[C@H](CO)[C@@H](O)[C@@H]3O)[C@H](O)[C@@H](O)[C@@H]2O)[C@H](O)[C@@H](O)[C@H]1O", "note": "[compound 13, raffinose]", "values": [{"measurement": "relative TEWL value", "setting": "[2]; measured in the same manner as in Examples 19 to 23, 5% by mass", "value": 42.1, "unit": "%"}]}
